Test results as given in patent publication US20100040607A1, “Combination Therapy with Inhibitors of HMGB and Caspase for the Treatment of Inflammatory Diseases” (priority 2005, published 2010).
Peptide text beside a SMILES is read from it. * marks the point of attachment. Cbz = O=C(OCc1ccccc1)*; CH2F = FC*

How the values were obtained:
RAW 264.7 cells [1] = assay: LPS-induced HMGB1 protein in RAW 264.7 cell supernatants by Western blot; type: cell-based, Murine; conditions: LPS 200 ng/ml, 0.1 to 10 μM, 16 h
Description: Treatment of RAW 264.7 cells with caspase inhibitor and Western blotting of HMGB1. Murine macrophage-like RAW 264.7 cells (American Type Culture Collection, ATCC, Rockville, Md.) were cultured in a 24-well culture dish in RPMI 1640 medium (Life Technologies, Grand Island, N.Y.), supplemented with 10% fetal bovine serum (Gemini, Catabasas, Calif.), penicillin and streptomycin (Life Technologies). Cells were used at 90% confluence and treatment was carried out in serum-free Opti-MEM I medium (Life Technologies). The cells were treated with LPS (200 ng/ml, Sigma, E. coli. 0111:B4) and various concentrations, ranging from 0.1 to 10 μM, of either the caspase inhibitor, Z-VAD-FMK (BD Biosciences), or a control peptide, Z-FA-FMK (BD Biosciences), in Opti-MEM I medium (Life Technologies, Grand Island, N.Y.). After 16 h, cell culture supernatants were concentrated by Centricon 10 (Millpore Corp., Bedford, Mass.) and HMGB1 levels were determined by Western blot. […] Western blots were scanned with a silver image scanner (Silverscanner II, Lacie Limited, Beaverton, Oreg.), and the relative band intensity was quantified using the NIH image 1.59 software. The levels of HMGB1 were calculated with reference to standard curves generated with purified HMGB1.

apoptotic cells = assay: Caspase 3 and TUNEL staining of spleen and thymus sections of CLP septic mice; type: in vivo, BALB/c mice; conditions: 0.5 mg IP at 90 min after surgery, 24 h
Description: Cecal ligation and puncture (CLP) surgery was performed on BALB/c mice to induce sepsis as described previously (Fink, M. P. and Heard, S. O., J. Surg. Res. 49:186-96 (1990); Friedman, G., et al., Crit. Care Med. 26:2078-86 (1998); Remick, D., et al., Shock 4:89-95 (1995)). At 90 min after the surgery, 0.5 mg of either Z-VAD-FMK (VAD) caspase inhibitor or Z-FA-FMK control peptide was administered to each mouse by intraperitoneal injection. Mice were euthanized 24 h after CLP.
Apoptotic cells were detected by performing Caspase 3 staining (FIG. 8A) and TUNEL staining (FIG. 8B) on fixed spleen and thymus sections from sacrificed mice that were either untreated (Normal) or treated with Z-VAD-FMK (VAD) caspase inhibitor (CLP+VAD) or Z-FA-FMK control peptide (CLP+ctrl) following CLP surgery. […] mice were analyzed in each group. Tissue sections were cut at 5 μm. Sections were placed on glass slides and subjected to staining using a TUNEL assay, performed according to manufacturer's protocol (ApoAlert DNA fragmentation assay kit, BD BioSciences, Palo Alto, Calif., Cat# K2024-1). […] Four to five mice were analyzed from each group.

HMGB1 = HMGB1 protein levels in BAL, peritoneal fluid and serum of CLP septic mice; type: in vivo, BALB/c mice; conditions: 0.5 mg IP at 90 min after surgery, 24 h, BAL fluid
Description: Cecal ligation and puncture (CLP) surgery was performed on BALB/c mice to induce sepsis as described previously (Fink, M. P. and Heard, S. O., J. Surg. Res. 49:186-96 (1990); Friedman, G., et al., Crit. Care Med. 26:2078-86 (1998); Remick, D., et al., Shock 4:89-95 (1995)). At 90 min after the surgery, 0.5 mg of either Z-VAD-FMK (VAD) caspase inhibitor or Z-FA-FMK control peptide was administered to each mouse by intraperitoneal injection. Mice were euthanized 24 h after CLP. HMGB1 protein levels in bronchoalveolar fluid (BAL), peritoneal fluid and serum were measured (FIG. 6). Protein levels of certain serum (e.g., IL-6, KC, MIP-2) and BAL (e.g., KC, MW-2) cytokines were determined (FIG. 7). Cell-conditioned medium, lung lavage fluid or peritoneal lavage fluid (100-2000) were first concentrated by passing through Centricon 10 (Millpore Corp. Bedford, Mass.). Cytokines were measured by using an enzyme-linked immunosorbent assay (ELISA) kit according to the instructions of the manufacturer (R & D System Inc., Minneapolis, Minn.). […] Western blots were scanned with a silver image scanner ([…] Limited, Beaverton, Oreg.), and the relative band intensity was quantified by using the NIH image 1.59° software. The levels of HMGB1 were calculated with reference to standard curves generated with purified HMGB1.

RAW 264.7 cells [2] = assay: HMGB1 translocation in LPS-treated RAW 264.7 cells by immunofluorescence; type: cell-based, Murine; conditions: LPS 100 ng/ml, 1 μM, 16 hours
Description: RAW 264.7 cells were plated in 8-well slide chambers (Lab-Tek, Nalge Nunc Internationals, Naperville, Ill.) and used at 60% confluence. Cells were incubated with LPS (100 ng/ml) alone, or LPS (100 ng/ml) with either 1 μM Z-VAD-FMK (VAD) or Z-FA-FMK control peptide for 16 hours in Opti-MEM I medium. Cells were washed 3 times with phosphate-buffered saline (PBS) at pH 7.2 and fixed in 2% neutral formalin for 20 minutes at room temperature. Polyclonal anti-HMGB1 antibody was added at a concentration of 2.5 μg/ml and incubated for an additional 30 minutes at room temperature. FITC-labeled anti-rabbit IgG was added (1:300 dilution, Sigma, St. Louis, Mo.; Cat. No. F9887). Cells were then washed 3 times with PBS (pH 7.2) with 0.1% saponin (Sigma Cat. #S4521), and mounted for fluorescent confocal microscopy analysis. To mount cells on a slide, one drop of VECTASHIELD mounting medium (Vector Lab, Cat#H-10000) was dispensed on to the section and allowed to cover the entire section. A coverslip was added, and the slides were imaged using a Zeiss, Axiovert 200 microscope (Gottingen, Germany).

IL-6, KC, MIP-2 = assay: Cytokine levels (IL-6, KC, MIP-2) in serum and BAL of CLP septic mice by ELISA; type: in vivo, BALB/c mice; conditions: 0.5 mg IP at 90 min after surgery, 24 h
Description: Cecal ligation and puncture (CLP) surgery was performed on BALB/c mice to induce sepsis as described previously (Fink, M. P. and Heard, S. O., J. Surg. Res. 49:186-96 (1990); Friedman, G., et al., Crit. Care Med. 26:2078-86 (1998); Remick, D., et al., Shock 4:89-95 (1995)). At 90 min after the surgery, 0.5 mg of either Z-VAD-FMK (VAD) caspase inhibitor or Z-FA-FMK control peptide was administered to each mouse by intraperitoneal injection. Mice were euthanized 24 h after CLP. HMGB1 protein levels in bronchoalveolar fluid (BAL), peritoneal fluid and serum were measured (FIG. 6). Protein levels of certain serum (e.g., IL-6, KC, MIP-2) and BAL (e.g., KC, MW-2) cytokines were determined (FIG. 7). Cell-conditioned medium, lung lavage fluid or peritoneal lavage fluid (100-2000) were first concentrated by passing through Centricon 10 (Millpore Corp. Bedford, Mass.). Cytokines were measured by using an enzyme-linked immunosorbent assay (ELISA) kit according to the instructions of the manufacturer (R & D System Inc., Minneapolis, Minn.). To determine HMGB1 concentrations, Centricon 10-filtered samples were fractionated by SDS-PAGE, transferred to PVDF Immunoblot membrane (Bio-Rad laboratories, Hercules, Calif.), and probed with polyclonal anti-HMGB1 IgG (5 μg/ml) for Western blot. Donkey anti-rabbit IgG conjugated with HRP (Amersham, Little Chalfont Buckinghamshire, England) and used at final dilution of 1:5,000. Polyclonal antibodies raised against purified HMGB1 were generated in rabbits (Cocalico Biologicals, Inc., Reamstown, Pa.) and IgG was purified using protein A agarose according to manufacturer's instructions (Pierce, Rockford, Ill.). Western blots were scanned with a silver image scanner ([…] Limited, Beaverton, Oreg.), and the relative band intensity was quantified by using the NIH image 1.59° software. The levels of HMGB1 were calculated with reference to standard curves generated with purified HMGB1.

| Compound | LPS-induced expression of HMGB1 protein (RAW 264.7 cells [1]) | number of apoptotic cells in spleen and thymus sections (apoptotic cells) | HMGB1 expression in septic mice (HMGB1) | HMGB1 translocation to the cytoplasm (RAW 264.7 cells [2]) | IL-6 expression in septic mice (IL-6, KC, MIP-2) | KC expression in septic mice (IL-6, KC, MIP-2) | MIP-2 expression in septic mice (IL-6, KC, MIP-2) |
| --- | --- | --- | --- | --- | --- | --- | --- |
| CC(NC(=O)[C@H](Cc1ccccc1)NC(=O)OCc1ccccc1)C(=O)CF (some centres unmarked) [Z-FA-FMK] | did not have an effect on HMGB1 expression | – | – | – | – | – | – |
| COC(=O)CC(NC(=O)C(C)NC(=O)C(NC(=O)OCc1ccccc1)C(C)C)C(=O)CF (stereo not drawn) [Z-VAD-FMK, carbobenzoxyl-valyl-alanyl-aspartyl-[O-methyl]-fluoromethylketone] (Cbz-Val-Ala-Asp(OMe)-CH2F; configuration not given here) | inhibited LPS-induced expression of HMGB1 protein in a dose-dependent manner | reduced the number of apoptotic cells | inhibited expression | inhibited HMGB1 translocation to the cytoplasm | inhibited expression | inhibited expression | inhibited expression |
